Test results: ChEMBL document CHEMBL1154170, “2-Oxoglutarate analogue inhibitors of prolyl hydroxylase domain 2” (Bioorg Med Chem Lett, 2009)

Target: Egl nine homolog 1 (Homo sapiens, UniProt Q9GZT9)
Experiment: Inhibition of human PHD2 catalytic domain (181-426) by FRET assay

Egl nine homolog 1, sequence (Q9GZT9 whole entry, the tested form may be a part): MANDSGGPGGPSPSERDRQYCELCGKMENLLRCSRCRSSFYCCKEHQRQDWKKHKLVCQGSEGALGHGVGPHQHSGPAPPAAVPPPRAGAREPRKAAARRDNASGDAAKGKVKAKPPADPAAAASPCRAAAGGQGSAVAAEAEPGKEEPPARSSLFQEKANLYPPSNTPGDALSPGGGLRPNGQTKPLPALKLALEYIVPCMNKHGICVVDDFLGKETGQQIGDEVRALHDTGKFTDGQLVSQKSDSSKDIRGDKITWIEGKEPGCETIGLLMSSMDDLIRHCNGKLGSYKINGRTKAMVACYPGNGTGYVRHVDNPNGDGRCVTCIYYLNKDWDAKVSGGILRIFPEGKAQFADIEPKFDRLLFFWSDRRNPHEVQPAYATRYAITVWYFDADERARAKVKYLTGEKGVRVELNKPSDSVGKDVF

| Structure (SMILES) | IC50 |
| --- | --- |
| O=C(O)CCC(=O)NO | 94 µM |
| CCNC(=O)C(=O)NCC(=O)O | > 1000 µM |
| O=C(O)CNC(=O)CC(=O)c1ccccc1 | > 1000 µM |
| CC(=O)CC(=O)CCC(=O)O [SUCCINYLACETONE] | 18 µM |
| CC(=O)CC(=O)NCC(=O)O | > 1000 µM |
| O=C(O)CNC(=O)C(=O)NCc1ccccc1 | > 1000 µM |
| O=C(O)CNC(=O)CC(=O)O | 398 µM |
| O=C(O)CNC(=O)NO | > 1000 µM |
| O=C(O)CN1CCNC(=O)C1=O | > 1000 µM |
| CCOC(=O)CC(=O)NCC(=O)O | > 1000 µM |
| O=C(O)CNC(=O)C(=O)C(=O)c1ccccc1 | 538 µM |
| COC(=O)C(=O)NCC(=O)O | 95 µM |
| CCOC(=O)C(=O)NCC(=O)O | 78 µM |
| CCNC(=O)C(=O)CCC(=O)O | > 1000 µM |
| COC(=O)CNC(=O)C(=O)O | > 1000 µM |
